Measured values taken from PubChem BioAssay AID330 (DTP/NCI, 2004).
“And” between values parts separate entries of the source, which are not always exact repeats. Equal values may be shown once. Inconclusive results and toxic doses are left out.

Test system: P388 leukemia ip, CD2F1 mice, survival T/C
Test: NCI In Vivo Anticancer Drug Screen. Data for tumor model P388 Leukemia (intraperitoneal) in CD2F1 (CDF1) mice
Conditions: endpoint: median survival time, higher = longer survival
Method in brief: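 Mice carrying the transplanted tumor received test compound or vehicle. Survival was recorded in each group, and the value is the treated-group measurement divided by that of the vehicle-treated control group.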

[1] = dose: 100.0 mg/kg/injection, schedule: Q04DX003 (ip), vehicle: saline
[2] = dose: 200.0 mg/kg/injection, schedule: Q04DX003 (ip), vehicle: saline
[3] = dose: 50.0 mg/kg/injection, schedule: Q01DX005 (ip), vehicle: saline with Tween-80
[4] = dose: 100.0 mg/kg/injection, schedule: Q01DX005 (ip), vehicle: saline with Tween-80
[5] = dose: 200.0 mg/kg/injection, schedule: Q01DX005 (ip), vehicle: saline with Tween-80
[6] = dose: 50.0 mg/kg/injection, schedule: Q04DX003 (ip), vehicle: saline
[7] = dose: 50.0 mg/kg/injection, schedule: Q01DX009 (ip), vehicle: Klucel (hydroxypropylcellulose) (HPC)
[8] = dose: 100.0 mg/kg/injection, schedule: Q01DX009 (ip), vehicle: Klucel (hydroxypropylcellulose) (HPC)
[9] = dose: 200.0 mg/kg/injection, schedule: Q01DX009 (ip), vehicle: Klucel (hydroxypropylcellulose) (HPC)
[10] = dose: 25.0 mg/kg/injection, schedule: Q01DX005 (ip), vehicle: saline with Tween-80
[11] = dose: 50.0 mg/kg/injection, schedule: Q01DX009 (ip), vehicle: saline with Tween-80
[12] = dose: 100.0 mg/kg/injection, schedule: Q01DX009 (ip), vehicle: saline
[13] = dose: 200.0 mg/kg/injection, schedule: Q01DX009 (ip), vehicle: saline

With `O=C(NO)c1ccncc1` the T/C [1] was 100 % of control, the T/C [2] was 109 % of control and the T/C (dose: 400.0 mg/kg/injection, schedule: Q04DX003 (ip), vehicle: saline) was 109 % of control.
With `O=C1c2ccccc2C(=O)c2c1c(O)c1cccnc1c2O` the T/C [3] was 103 % of control, the T/C [4] was 100 % of control and the T/C [5] was 95 % of control.
With `O=C(CCl)N1CCN(c2ccccn2)CC1` the T/C (dose: 60.0 mg/kg/injection, schedule: Q01DX005 (ip), vehicle: saline with Tween-80) was 109 % of control, the T/C (dose: 120.0 mg/kg/injection, schedule: Q01DX005 (ip), vehicle: saline with Tween-80) was 110 % of control and the T/C (dose: 240.0 mg/kg/injection, schedule: Q01DX005 (ip), vehicle: saline with Tween-80) was 116 % of control.
`CNC(=O)/C=C/C1=CN2C(=O)c3ccc(C)c(O)c3NC(OC)C2C1` (stereo not drawn) was tested, and the T/C (dose: 0.01 mg/kg/injection, schedule: Q01DX009 (ip), vehicle: suspension in saline) was 102 % of control and 115 % of control, the T/C (dose: 0.02 mg/kg/injection, schedule: Q01DX009 (ip), vehicle: suspension in saline) was 116 % of control and the T/C (dose: 0.05 mg/kg/injection, schedule: Q01DX009 (ip), vehicle: saline) was 121 % of control. For the same compound, the T/C (dose: 0.05 mg/kg/injection, schedule: Q01DX009 (ip), vehicle: suspension in saline) was 120 % of control, the T/C (dose: 0.2 mg/kg/injection, schedule: Q01DX009 (ip), vehicle: saline) was 92 % of control and the T/C (dose: 0.2 mg/kg/injection, schedule: Q01DX009 (ip), vehicle: suspension in saline) was 97 % of control.
For `CN(C)c1ccc2nc3ccc(=[N+](C)C)c([N+](=O)[O-])c-3sc2c1`, the T/C (dose: 15.0 mg/kg/injection, schedule: Q01DX005 (ip), vehicle: saline) was 105 % of control, the T/C (dose: 30.0 mg/kg/injection, schedule: Q01DX005 (ip), vehicle: saline) was 100 % of control and the T/C [3] was 116 % of control. For the same compound, the T/C [4] was 100 % of control.
For `CCOC(=O)CCCCCCN(/C=C(\C)CN1c2c(nc(N)[nH]c2=O)NCC1CNc1ccc(C(=O)NC(CCC(=O)O)C(=O)O)cc1)C(C)=O` (stereo not drawn), the T/C [6] was 97 % of control, the T/C [1] was 99 % of control and the T/C [2] was 98 % of control.
With `COc1ccc(/C=N/Nc2nnc3c4ccccc4c4ccccc4c3n2)cc1` the T/C [6] was 89 % of control, the T/C [1] was 93 % of control and the T/C [2] was 92 % of control.
With `O=C(c1ccccc1)C(c1ccccc1)n1nc2c(c1-c1ccccc1)CCCC2` (stereo not drawn) the T/C [7] was 98 % of control, the T/C [8] was 91 % of control and the T/C [9] was 97 % of control.
In the case of `O=C1C2C3C=CC(C2C(=O)N1c1ccccc1)C1C2C(=O)N(c4ccccc4)C(=O)C2C31` (stereo not drawn), the T/C (dose: 100.0 mg/kg/injection, schedule: Q01DX001 (ip), vehicle: saline with Tween-80) was 88 % of control, the T/C (dose: 200.0 mg/kg/injection, schedule: Q01DX001 (ip), vehicle: saline with Tween-80) was 89 % of control and the T/C (dose: 400.0 mg/kg/injection, schedule: Q01DX001 (ip), vehicle: saline with Tween-80) was 93 % of control.
For `NC(=O)CNCc1ccccc1`, the T/C [3] was 94 % of control, the T/C [4] was 99 % of control and the T/C [5] was 94 % of control.
For `C=CCOc1c(C=O)cccc1OC`, the T/C [10] was 101 % of control, the T/C [3] was 100 % of control and the T/C [4] was 108 % of control.
`O=C1CCC(N2C(=O)CC3(CCCC3)C2=O)C(=O)N1c1ccc([N+](=O)[O-])cc1` (stereo not drawn) was tested, and the T/C [11] was 106 % of control, the T/C (dose: 100.0 mg/kg/injection, schedule: Q01DX009 (ip), vehicle: saline with Tween-80) was 109 % of control and the T/C (dose: 200.0 mg/kg/injection, schedule: Q01DX009 (ip), vehicle: saline with Tween-80) was 99 % of control.
With `CC(C)=CC1C(/C(C)=C/CCCCC(=O)O)C1(C)C` (stereo not drawn) the T/C (dose: 100.0 mg/kg/injection, schedule: Q04DX002 (ip), vehicle: saline with Tween-80) was 101 % of control, the T/C (dose: 200.0 mg/kg/injection, schedule: Q04DX002 (ip), vehicle: saline with Tween-80) was 94 % of control and the T/C (dose: 400.0 mg/kg/injection, schedule: Q04DX002 (ip), vehicle: saline with Tween-80) was 96 % of control.
`COC(=O)/C=C/N(Cc1ccccc1)/N=N/N(/C=C/C(=O)OC)Cc1ccccc1` was tested, and the T/C (dose: 6.25 mg/kg/injection, schedule: Q01DX005 (ip), vehicle: saline with Tween-80) was 101 % of control, the T/C (dose: 12.5 mg/kg/injection, schedule: Q01DX005 (ip), vehicle: saline with Tween-80) was 95 % of control and the T/C [10] was 97 % of control. The T/C [5] was 87 % of control.
In the case of `Cn1c2ccccc2c2oc(-c3nn[nH]n3)cc(=O)c21`, the T/C (dose: 60.0 mg/kg/injection, schedule: Q01DX005 (ip), vehicle: Klucel (hydroxypropylcellulose) (HPC)) was 97 % of control, the T/C (dose: 120.0 mg/kg/injection, schedule: Q01DX005 (ip), vehicle: Klucel (hydroxypropylcellulose) (HPC)) was 105 % of control and the T/C (dose: 240.0 mg/kg/injection, schedule: Q01DX005 (ip), vehicle: Klucel (hydroxypropylcellulose) (HPC)) was 100 % of control.
For `O=C1N(CC2CO2)CCN1CC1CO1` (stereo not drawn), the T/C (dose: 25.0 mg/kg/injection, schedule: Q01DX009 (ip), vehicle: saline) was 120 % of control, the T/C [12] was 155 % of control and 159 % of control and the T/C [13] was 206 % of control and 215 % of control.
With `COc1ccc(-c2c(C#N)cnc(C)c2C)c(O)c1OC` the T/C (dose: 25.0 mg/kg/injection, schedule: Q01DX009 (ip), vehicle: Klucel (hydroxypropylcellulose) (HPC)) was 96 % of control, the T/C [7] was 92 % of control and the T/C [8] was 96 % of control. The T/C [9] was 90 % of control.
For `CN1C(=O)C(N=O)C(=O)N(C)C1=S`, the T/C (dose: 6.25 mg/kg/injection, schedule: Q04DX002 (ip), vehicle: saline with Tween-80) was 99 % of control, the T/C (dose: 12.5 mg/kg/injection, schedule: Q04DX002 (ip), vehicle: saline with Tween-80) was 100 % of control and the T/C (dose: 25.0 mg/kg/injection, schedule: Q04DX002 (ip), vehicle: saline with Tween-80) was 101 % of control.
With `CC(NC1=NCCO1)c1cccc2ccccc12` (stereo not drawn) the T/C (dose: 12.5 mg/kg/injection, schedule: Q04DX003 (ip), vehicle: saline with Tween-80) was 100 % of control, the T/C (dose: 25.0 mg/kg/injection, schedule: Q04DX003 (ip), vehicle: saline with Tween-80) was 95 % of control and the T/C (dose: 50.0 mg/kg/injection, schedule: Q04DX003 (ip), vehicle: saline with Tween-80) was 100 % of control.
With `C1COCCOCCOCCO1.[Cl][Sn]([Cl])([Cl])[Cl]` the T/C (dose: 100.0 mg/kg/injection, schedule: Q01DX001 (ip), vehicle: Klucel (hydroxypropylcellulose) (HPC)) was 98 % of control and the T/C (dose: 200.0 mg/kg/injection, schedule: Q01DX001 (ip), vehicle: Klucel (hydroxypropylcellulose) (HPC)) was 90 % of control.
In the case of `C/C(N=NC(=S)N1CCCC(C)C1)=C1\C=CC=CN1O` (stereo not drawn), the T/C [3] was 101 % of control, the T/C [4] was 98 % of control and the T/C [5] was 112 % of control.
For `CCN(CC)CCN1C(=O)c2cccc3cc(N)cc(c23)C1=O`, the T/C (dose: 1.56 mg/kg/injection, schedule: Q01DX009 (ip), vehicle: saline with Tween-80) was 101 % of control, the T/C (dose: 1.6 mg/kg/injection, schedule: Q01DX009 (ip), vehicle: saline with Tween-80) was 100 % of control and the T/C (dose: 3.12 mg/kg/injection, schedule: Q01DX009 (ip), vehicle: saline with Tween-80) was 98 % of control. The T/C (dose: 3.2 mg/kg/injection, schedule: Q01DX009 (ip), vehicle: saline with Tween-80) was 108 % of control, the T/C (dose: 6.25 mg/kg/injection, schedule: Q01DX009 (ip), vehicle: saline with Tween-80) was 98 % of control and the T/C (dose: 6.5 mg/kg/injection, schedule: Q01DX009 (ip), vehicle: saline with Tween-80) was 107 % of control and 123 % of control. The T/C (dose: 12.5 mg/kg/injection, schedule: Q01DX009 (ip), vehicle: saline with Tween-80) was 107 % of control, the T/C (dose: 13.1 mg/kg/injection, schedule: Q01DX009 (ip), vehicle: saline with Tween-80) was 121 % of control and 123 % of control and the T/C (dose: 25.0 mg/kg/injection, schedule: Q01DX009 (ip), vehicle: saline with Tween-80) was 114 % of control. For the same compound, the T/C (dose: 26.0 mg/kg/injection, schedule: Q01DX009 (ip), vehicle: saline with Tween-80) was 124 % of control and the T/C [11] was 160 % of control.
For `Cc1cc(Cl)ccc1OCC(C)OC(=O)NC(C)C` (stereo not drawn), the T/C [7] was 106 % of control, the T/C [8] was 97 % of control and the T/C [9] was 101 % of control.
For `C[P+]12CN3CN(CN(C3)C1)C2`, the T/C (dose: 50.0 mg/kg/injection, schedule: Q01DX009 (ip), vehicle: saline) was 107 % of control, the T/C [12] was 107 % of control and the T/C [13] was 101 % of control.
`CCCCCCCC(=O)Nc1nnc(SCCCCCCCCCCSc2nnc(NC(=O)CCCCCCC)s2)s1` was tested, and the T/C (dose: 50.0 mg/kg/injection, schedule: Q01DX005 (ip), vehicle: Klucel + Tween-80) was 90 % of control, the T/C (dose: 100.0 mg/kg/injection, schedule: Q01DX005 (ip), vehicle: Klucel + Tween-80) was 87 % of control and the T/C (dose: 200.0 mg/kg/injection, schedule: Q01DX005 (ip), vehicle: Klucel + Tween-80) was 90 % of control.
